Data reported in patent publication US8624034B2, “Fluoro-pyridinone derivatives useful as antibacterial agents” (Pfizer Inc., priority 2011, dated 2014).
In brackets after ≈: the same amount, converted by molar mass.

Legend:
[1] = system: Acinetobacter baumannii/haemolyticus, multidrug-resistant clinical isolate (AB-3167); test: MIC determination, AB-3167; type: cell-based; conditions: Table 3, lower of duplicate values
Method: (§1) The in vitro antibacterial activity of compounds described in the Examples was evaluated by minimum inhibitory concentration (MIC) testing according to Clinical and Laboratory Standards Institute (CLSI). See: Clinical and Laboratory Standards Institute. Methods for Dilution Antimicrobial Susceptibility Tests for Bacteria that Grow Aerobically; Approved Standard-Eighth Edition. CLSI document M7-A8 [ISBN 1-56238-689-1]. Clinical and Laboratory Standards Institute, 940 West Valley Road, Suite 1400, Wayne, Pa. 19087-1898 USA, 2006; also Clinical and Laboratory Standards Institute. Performance Standards for Antimicrobial Susceptibility Testing; Twentieth Informational Supplement. CLSI document M100-S20 [ISBN 1-56238-716-2]. Clinical and Laboratory Standards Institute.
(§2) The MIC determination is a standard laboratory method for evaluating the antibacterial activity of a compound. The MIC represents the lowest drug concentration that inhibits visible growth of bacteria following overnight incubation. […] Typically, the drug concentration range is broken down into 2-fold increments (e.g. 0.06 μg/mL, 0.12 μg/mL. 0.25 μg/mL, 0.50 μg/mL, 1.0 μg/mL, etc.) and the various drug concentrations are all individually incubated overnight with approximately the same number of bacteria. The MIC is then determined by visually inspecting the drug effect at each concentration, and identifying the lowest drug concentration that has inhibited bacterial growth as compared to the drug free control. Typically, bacteria continue to grow at drug concentrations lower than the MIC and don't grow at concentrations at and above the MIC.
(§3) The MIC values described in Table 2 and 3 below were derived from assays wherein each test compound was evaluated in duplicate. In cases where the duplicate values varied by 0-2-fold, the lower of the two values was reported below. Generally speaking, if the duplicate values varied by more than 2-fold, the assay was considered non-valid and was repeated until the variation between duplicate runs was ≦2-fold. In line with the CLSI guidelines referred to above, both control organisms and reference compounds were utilized in each MIC assay to provide proper quality control. MIC values generated with these control organisms and reference compounds were required to fall within a defined range for the assay to be considered valid and be included herein. Those skilled in the art will recognize that MIC values can and do vary from experiment to experiment. Generally speaking, it should be recognized that MIC values often vary +/−2-fold from experiment to experiment. While a single MIC is reported for each compound and each microorganism, the reader should not conclude that each compound was only tested once. Several of the compounds were subjected to multiple tests. The data reported in Tables 2 and 3 is reflective of the compounds relative activity and different MICs may have been generated on these occasions in line with the guidelines described above.
(§4) The following bacterial strains were used in these MIC determinations:
2) Acinetobacter baumannii/haemolyticus: Multidrug-resistant clinical isolate labeled as AB-3167 in Tables 2 and 3;

[2] = system: Escherichia coli EC-1: VOGEL, mouse virulent; test: MIC determination, EC-1; type: cell-based; conditions: Escherichia coli, read-out: EC-1 (MIC), Table 3, lower of duplicate values
Method: as §1, §2, §3, §4
3) Escherichia coli EC-1: VOGEL, mouse virulent labeled as EC-1 in Tables 2 and 3;

PA:UC12120 = test: MIC determination, PA:UC12120 (Table 3); type: cell-based, Pseudomonas aeruginosa; conditions: Pseudomonas aeruginosa, UC12120, Table 3, lower of duplicate values
Method: as §1, §2, §3
In Table 3 below, column 1 corresponds to the Example number, column 2 provides the IUPAC name, columns 3-6 provide in vitro biological data generated in the same manner as in Table 2, columns 7 and 8 provide the retention times and mass spectra generated via LCMS, using the method described below. All data is not currently available for all compounds, as indicated by a blank cell in Table 3.

[3] = molecular target: T1, Pseudomonas aeruginosa LpxC enzyme (Pseudomonas aeruginosa, UniProt P47205); test: IC50 assay, LpxC enzyme from P. aeruginosa (PA LpxC enzyme IC50); type: biochemical; conditions: Table 3; LpxC enzyme 0.1 nM, 25° C., 1 hour; read-out: PA:IC50
T1 construct: made in house; host or cells: E. coli
T1 sequence (P47205 1-303): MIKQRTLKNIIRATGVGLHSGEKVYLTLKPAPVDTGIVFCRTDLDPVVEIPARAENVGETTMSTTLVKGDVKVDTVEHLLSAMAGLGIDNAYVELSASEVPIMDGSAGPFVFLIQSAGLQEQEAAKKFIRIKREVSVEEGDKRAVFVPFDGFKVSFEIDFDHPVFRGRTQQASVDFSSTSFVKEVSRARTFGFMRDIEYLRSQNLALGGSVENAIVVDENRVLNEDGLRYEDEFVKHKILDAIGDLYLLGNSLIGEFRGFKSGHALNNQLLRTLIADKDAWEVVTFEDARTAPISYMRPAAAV
Method: In order to assess the compounds biological activity, selected in vitro assays were conducted on selected compounds. One of the assays measured the compounds ability to disrupt the synthesis of lipopolysaccharide, LPS, which is a component of the outer membrane of Gram-negative bacteria. Disruption of this synthesis is lethal to the bacteria. The assay determined the compound's ability to inhibit LpxC, which is the first enzyme in the biosynthetic pathway for LPS (measured as IC50). Additionally, MICs (minimal inhibitory concentrations) were determined for several bacteria. The specific protocols are described below:
A) IC50 Assay, LpxC Enzyme from P. aeruginosa (Labeled as PA LpxC Enzyme IC50):
At the end of 1 hour, 5 ul of 1 N HCl was added to stop the enzyme reaction, the plates were centrifuged, and then processed with the BioTrove Rapidfire HTMS Mass Spectrometry System. A no-enzyme control was used in calculating the IC50 values from the percent conversion values.

Row | SMILES | MIC [1] [µg/mL] | MIC [2] [µg/mL] | MIC (PA:UC12120) [µg/mL] | IC50 [3] [µM]
1 | CC(CCn1cc(F)c(-c2cnc(N3CCCC3)nc2)cc1=O)(C(=O)NO)S(C)(=O)=O (centres unmarked) [Example 106, 4-[5-fluoro-2-oxo-4-(2-pyrrolidin-1-ylpyrimidin-5-yl)pyridin-1(2H)-yl]-N-hydroxy-2-methyl-2-(methylsulfonyl)butanamide] | > 64 | 32 (≈ 70.6 µM) | 64 (≈ 141 µM) | 0.0568
2 | CC(CCn1cc(F)c(-c2ccc(CC#N)cc2)cc1=O)(C(=O)NO)S(C)(=O)=O (centres unmarked) [Example 91, 4-{4-[4-(cyanomethyl)phenyl]-5-fluoro-2-oxopyridin-1(2H)-yl}-N-hydroxy-2-methyl-2-(methylsulfonyl)butanamide] | > 64 | 16 (≈ 38 µM) | 4 (≈ 9.49 µM) | 0.0023
3 | CC(CCn1cc(F)c(-c2ccc3cn[nH]c3c2)cc1=O)(C(=O)NO)S(C)(=O)=O (centres unmarked) [Example 51, 4-[5-fluoro-4-(1H-indazol-6-yl)-2-oxopyridin-1(2H)-yl]-N-hydroxy-2-methyl-2-(methylsulfonyl)butanamide] | > 64 | > 64 | > 64 | 0.0039
4 | COc1cc(-c2cc(=O)n(CCC(C)(C(=O)NO)S(C)(=O)=O)cc2F)ccc1C#N (centres unmarked) [Example 74, 4-[4-(4-cyano-3-methoxyphenyl)-5-fluoro-2-oxopyridin-1(2H)-yl]-N-hydroxy-2-methyl-2-(methylsulfonyl)butanamide] | > 64 | 64 (≈ 146 µM) | 16 (≈ 36.6 µM) | 0.0059
5 | CNC(=O)c1ccc(-c2cc(=O)n(CCC(C)(C(=O)NO)S(C)(=O)=O)cc2F)cc1 (centres unmarked) [Example 84, 4-{5-fluoro-1-[4-(hydroxyamino)-3-methyl-3-(methylsulfonyl)-4-oxobutyl]-2-oxo-1,2-dihydropyridin-4-yl}-N-methylbenzamide] | > 64 | > 64 | > 64 | 0.0145
6 | CC(=O)Nc1cccc(-c2cc(=O)n(CCC(C)(C(=O)NO)S(C)(=O)=O)cc2F)c1 (centres unmarked) [Example 61, 4-[4-(3-acetamidophenyl)-5-fluoro-2-oxopyridin-1(2H)-yl]-N-hydroxy-2-methyl-2-(methylsulfonyl)butanamide] | > 64 | > 64 | > 64 | > 0.1
7 | COc1cc(-c2cc(=O)n(CCC(C)(C(=O)NO)S(C)(=O)=O)cc2F)ccc1F (centres unmarked) [Example 67, 4-[5-fluoro-4-(4-fluoro-3-methoxyphenyl)-2-oxopyridin-1(2H)-yl]-N-hydroxy-2-methyl-2-(methylsulfonyl)butanamide] | 64 (≈ 149 µM) | 16 (≈ 37.2 µM) | 4 (≈ 9.29 µM) | 0.0045
8 | CC(CCn1cc(F)c(-c2ccncc2F)cc1=O)(C(=O)NO)S(C)(=O)=O (centres unmarked) [Example 73, 4-(3′,5-difluoro-2-oxo-4,4′-bipyridin-1(2H)-yl)-N-hydroxy-2-methyl-2-(methylsulfonyl)butanamide] | > 64 | > 64 | 8 (≈ 19.9 µM) | 0.0083
9 | Cc1ncc(-c2cc(=O)n(CCC(C)(C(=O)NO)S(C)(=O)=O)cc2F)cc1F (centres unmarked) [Example 83, 4-(5,5′-difluoro-6-methyl-2′-oxo-3,4′-bipyridin-1′(2′H)-yl)-N-hydroxy-2-methyl-2-(methylsulfonyl)butanamide] | > 64 | > 64 | 32 (≈ 77 µM) | 0.0275
10 | CN(C)C(=O)c1ccc(-c2cc(=O)n(CCC(C)(C(=O)NO)S(C)(=O)=O)cc2F)cc1 (centres unmarked) [Example 68, 4-{5-fluoro-1-[4-(hydroxyamino)-3-methyl-3-(methylsulfonyl)-4-oxobutyl]-2-oxo-1,2-dihydropyridin-4-yl}-N,N-dimethylbenzamide] | > 64 | > 64 | > 64 | 0.0343
11 | CC(CCn1cc(F)c(-c2ccc(Cl)cn2)cc1=O)(C(=O)NO)S(C)(=O)=O (centres unmarked) [Example 90, 4-(5-chloro-5′-fluoro-2′-oxo-2,4′-bipyridin-1′(2′H)-yl)-N-hydroxy-2-methyl-2-(methylsulfonyl)butanamide] | > 64 | 64 (≈ 153 µM) | 16 (≈ 38.3 µM) | 0.0125
